Test system: AOX1 promoter
Assay: Induction of the AOX1 promoter in recombinant P. pastoris cells carrying the azurin gene; western blot of culture broth with anti-azurin antibody
Format: cell-based, Pichia pastoris
Source text: FIG. 1B. Relative expression levels of azurin protein in culture broths
Recombinant yeast cells were obtained by performing steps A, B and C in the study in which the recombinant DNA obtained by Inserting the azurin gene of Pseudomonas aeruginosa into pPICZαA was integrated into the genome of P. pastoris X33 strain (https://pubmed.ncbi.nlm.nih.gov/33346686/).
In this Invention, recombinant Pichia pastoris cells which carry the “azurin protein” gene (as a reference gene) from Pseudomonas aeruginosa in their genomes and can perform the extracellular production of this protein were used.
Said protein gene is located in the downstream of the AOX1 promoter in the genome of P. pastoris cells. If the AOX promoter is induced, expression of this gene inserted into the genome can be achieved. […] Methanol or farnesol was added to the culture medium In predetermined amounts every 24 hours.

| Structure (SMILES) | protein expression level among the farnesol groups (240 farnesol group compared with 120 and 480 μL/L, 72 hours, FIG. 1B) | protein expression level relative to the 0.5% (v/v) methanol-induced group (240 farnesol group, P<0.05, FIG. 1B) | extracellular protein (azurin) production on induction of the promoter (farnesol 120 μL/L, 240 μL/L and 480 μL/L added every 24 hours, sorbitol as carbon source, 30° C., 280 rpm, 72 hours, FIG. 1A) | protein (azurin) production on induction of the promoter (methanol 0.5% v/v (control inducer) added every 24 hours, sorbitol as carbon source, 30° C., 280 rpm, 72 hours, FIG. 1A) |
| --- | --- | --- | --- | --- |
| CC(C)=CCCC(C)=CCCC(C)=CCO [farnesol] | highest protein expression level | higher than that of the 0.5% (v/v) methanol-induced group | protein production also occurred | – |
| CO [methanol] | – | – | – | protein production |
